Data taken from US10603265B2, “Skin whitening peptide agents” (INSTITUT CURIE, priority 2014, dated 2020).
“And” between values parts separate entries of the source, which are not always exact repeats. Identical values can stand only once. “Also recorded” adds a separate entry of the source.

Assays:
[1] = molecular target: T1, AP-1/KIF13A interaction (Homo sapiens, UniProt Q9H1H9); experiment: AP-1 immunoprecipitation / KIF13A western blot, MNT-1 melanocyte lysates incubated with peptides; assay type: biochemical; settings: MNT-1 melanocytic cell lysates, 1 μg peptide, KIF13A/AP-1 band intensity normalized to control
T1 construct: endogenous in cells; host or cells: MNT-1 (MNT1) human melanocytic cells
Procedure: FIG. 2: γ-adaptin subunit of the human AP-1 complex was immunoprecipitated from melanocytes (MNT1) cell lysates in presence or not of 1 μg of the indicated peptides (peptides SS-5, EK-11 and QK-5: SEQ ID NO: 28, 1 and 16, respectively) for 2 h at 4° C. under rotation. […] EK-11 and SS-5 peptides were used as a positive and negative controls, respectively. Molecular weight in kDa.
FIG. 3: Intensity of the immunoprecipitated KIF13A and AP-1 bands shown in FIG. 2 were quantified using ImageJ. KIF13A intensity were divided by its corresponding AP-1 intensity and normalized to the control (lysates incubated without peptides, first lane).
Cells at 80% of confluency were washed in cold PBS and lysed on ice in lysis buffer (50 mM Tris, 150 mM NaCl, 0.1% Triton X-100, 10 mM EDTA, pH 7.2, and protease inhibitor cocktail, Roche). Lysates were incubated overnight with 1 μg of peptides. Lysates were first precleared using protein G agarose beads for 1 h at 4° C. under rotation. Supernatants were collected and incubated with protein G agarose beads with 1 μg mouse monoclonal IgG2b anti-CD9 for 1 h at 4° C. under rotation. Precleared supernatants were incubated with beads coated earlier with 1 μg mouse monoclonal IgG2b anti-γ-adaptin for 2 h at 4° C. under rotation. As negative control, 1 μg mouse monoclonal IgG2b anti-CD9 was used to immunoprecipitate the lysate. […]

[2] = molecular target: T2, interaction of human AP-1 with human KIF13A (Homo sapiens, UniProt Q9H1H9); experiment: AP-1 immunoprecipitation / KIF13A western blot, HeLa cell lysates incubated with peptides; assay type: biochemical; settings: 1 μg peptide, vs control without peptide
T2 construct: incubating independently g of each 12 peptides with HeLa cell lysates (non pigmented cells); endogenous in cells; host or cells: HeLa cell lysate
Procedure: FIG. 1: γ-adaptin subunit of the human AP-1 complex was immunoprecipitated from HeLa cell lysates in presence or not of 1 μg of the indicated 11 amino acids peptides (peptides AI, QT, GN, EK, EL, WQ; NY, QF, LM, FF, LK and RI: SEQ ID NO: 17, 28, 20, 1, 25, 27, 22, 21, 24, 23, 19 and 26, respectively) for 2 h at 4° C. under rotation. […] Molecular weight in kDa.
Cells at 80% of confluency were washed in cold PBS and lysed on ice in lysis buffer (50 mM Tris, 150 mM NaCl, 0.1% Triton X-100, 10 mM EDTA, pH 7.2, and protease inhibitor cocktail, Roche). Lysates were incubated overnight with 1 μg of peptides. Lysates were first precleared using protein G agarose beads for 1 h at 4° C. under rotation. Supernatants were collected and incubated with protein G agarose beads with 1 μg mouse monoclonal IgG2b anti-CD9 for 1 h at 4° C. under rotation. Precleared supernatants were incubated with beads coated earlier with 1 μg mouse monoclonal IgG2b anti-γ-adaptin for 2 h at 4° C. under rotation. As negative control, 1 μg mouse monoclonal IgG2b anti-CD9 was used to immunoprecipitate the lysate.
After five washes in cold lysis buffer and three washes in PBS, immunoprecipitated proteins bound to the beads were incubated in sample buffer with reducing agent, boiled for 10 min at 95° C., and fractionated by SDS-PAGE using Nupage (3-8%) Tris-acetate gels (Invitrogen). […]

[3] = molecular target: T3, co-localization of KIF13A with AP-1 (Homo sapiens, UniProt Q9H1H9); experiment: Immunofluorescence colocalization of AP-1 with KIF13A in MNT-1 melanocytes; assay type: cell-based; settings: MNT1 melanocytes, 3 days, 10 μM peptide, vs H2O control
T3 construct: endogenous in cells; host or cells: MNT-1 (MNT1) human melanocytic cells
Procedure: FIG. 5: MNT1 melanocytes were seeded on glass coverslips and cultured 3 days with 10 μM of QK-5 peptide (SEQ ID NO: 16) or H2O as a control. Cells were fixed in cold methanol and co-stained using a rabbit anti-human KIF13A and a mouse anti-human γ-adaptin as primary antibodies and goat anti-rabbit or mouse coupled to Alexa-488 or 546 (Molecular Probes). Coverslips were mounted in Dabco (Invitrogen) medium and images were acquired on an Eclipse 80i Upright Microscope (Nikon) and deconvoluted. Images are maximum-intensity z projections of up to 15 3D image stacks acquired using ImageJ software. Analysis was performed by quantifying the intensity of overlapping KIF13A and AP-1 pixels and by normalizing them to the control. QK-5 peptide incubation on melanocytes decreased about 84±7% the co-localization of KIF13A with AP-1. Data are presented as mean±standard deviation. ***; p value (two tailed)<0.001.
MNT-1 cells grown on coverslips were incubated for three days in medium containing 10 μg of peptides. Coverslips were rinsed in PBS, fixed in 100% cold methanol for 30 sec, followed by incubation in PBS and 1 mg/ml BSA. […]
Colocalization analysis was performed using ImageJ software. […] Then identical area inside cells were defined and analyzed for quantification.

[4] = tested on: MNT-1 cells; experiment: Electron microscopy, grading of melanosome stages in MNT-1 cells; assay type: cell-based, human; settings: MNT1 melanocytes, 3 days, 10 μM peptide, vs H2O control
Procedure: FIG. 6: MNT1 melanocytes were seeded on glass coverslips and cultured 3 days with 10 μM of QK-5 peptide (SEQ ID NO: 16; bottom panel) or H2O (top panel) as a control. Then cells were rapidly washed in DMEM at room temperature and fixed for 90 min with a mixture of 2.5% glutaraldehyde in 0.1 M cacodylate buffer for 90 min at 4° C., post-fixed with 1% OsO4/1.5% potassium ferrocyanide 45 min at 4° C., dehydrated in ethanol and embedded in Epon resin. Ultrathin (60-70 nm) sections were observed under a CM120 electron microscope (FEI company, Eindoven), equipped with a KeenView camera (Soft Imaging System; SIS, Germany). […] Scale bar: 2 μm.
FIG. 7: Melanosome stages were quantified based on their morphologies on MNT1 melanocytes treated as in FIG. 6. Stages I and II correspond to early non-pigmented melanosomes, melanin pigmentation is initiated in stage III, whereas stage IV is a fully mature and pigmented melanosome. Stages were counted and plotted as percentage of their total number.
Control and peptide-treated MNT-1 cells grown on coverslips for 3 days were fixed with 2.5% glutaraldehyde in 0.1M cacodylate buffer, pH 7.2 post-fixed with 1% OsO4 supplemented with 1.5% Potassium ferrocyanure, dehydrated in ethanol, and embedded in epon. Ultrathin sections were prepared with an Ulltracut UCT ultramicrotome (Leica) and observed under a CM120 electron microscope (FEI company, Eindoven) after counter-staining with uranyl acetate and lead citrate.
Grading of melanosomes stages from I to IV, based on morphology and melanin content, were done independently by two authors. The table below presents the criteria of analyses.

[5] = tested on: 3D human reconstructed pigmented epidermis; experiment: Melanin assay on reconstructed human pigmented epidermis; assay type: cell-based; settings: 10 days, 30 μM peptide, OD 492 nm, normalized to control
Procedure: FIG. 10: Melanin quantitation on 3D human reconstructed pigmented epidermis incubated 10 days with 30 μM of QA-3 peptides or AK-3 peptides. Synthetic epidermis were removed from their insert and dissolved in 400 μl of Solvable (Perkin Elmer) for 1 h at 100° C. Melanin quantification was performed on 200 μl by measuring the optical density at 492 nm. Melanin quantifications were normalized to the control. Both QA-3 and AK-3 peptides decreased about 22.5±13% or 21±10% the melanin production by synthetic skin epidermis. Data are presented as mean±standard deviation. *; p value (two tailed)<0.1.
Reconstructed human epidermal of phototype VI (Sterlab) were received at day 10 and incubated with the manufacturer's growth medium supplemented from day 11 to day 21 with 30 μg of peptides. As recommended, medium was changed every day. At day 21, the epidermis was separated from the insert, digested by incubation in 400 μl of Solvable (PerkinElmer) at 98° C. for 1 h. Melanin content was measured as optical density at 492 nm.

[6] = tested on: MNT-1 cells; experiment: Melanin assay on MNT-1 cells; assay type: cell-based, human; settings: MNT1 melanocytes, 3 days, 10 μM peptide, OD 492 nm, normalized to H2O control
Procedure: FIG. 4: MNT1 melanocytes were cultured 3 days with 10 μM of QK-5 peptide (SEQ ID NO: 16) or H2O as a control. Melanin estimation was performed as previously described (Delevoye et al., J Cell Biol. 2009 Oct. 19; 187(2):247-64), and normalized to the control. QK-5 peptide incubation decreased the intracellular melanin content about 40±0.02%. Data are presented as mean±standard deviation. *; p value (two tailed)<0.05.
The skin whitening activity of the peptide may further be determined by measuring the melanin content of melanocytic cells such as MNT-1 cells, incubated with the peptide. For example, the assay may be carried out as follow: at day 1, 10^5 MNT-1 cells are seeded in 6-well plates; From day 2 to day 4, cells are grown in medium comprising 10 μM of peptides; at day 5, cells are disrupted by sonication in 50 mM Tris-HCl, pH 7.4, 2 mM EDTA, 150 mM NaCl, 1 mM dithiothreitol, and protease inhibitors. Pigment is pelleted at 20,000 g for 15 min at 4° C., rinsed once in ethanol/ether (1:1), and dissolved in 2 M NaOH/20% dimethylsulfoxide at 60° C.; Melanin content is measured as optical density at 492 nm.
At day 1, 10^5 cells were seeded in 6-well plates. From day 2 to day 4, cells were grown in medium containing 1 or 10 μg of peptides. Medium was changed every day. […] Melanin content was measured as optical density at 492 nm.

T1 sequence (Q9H1H9 whole entry): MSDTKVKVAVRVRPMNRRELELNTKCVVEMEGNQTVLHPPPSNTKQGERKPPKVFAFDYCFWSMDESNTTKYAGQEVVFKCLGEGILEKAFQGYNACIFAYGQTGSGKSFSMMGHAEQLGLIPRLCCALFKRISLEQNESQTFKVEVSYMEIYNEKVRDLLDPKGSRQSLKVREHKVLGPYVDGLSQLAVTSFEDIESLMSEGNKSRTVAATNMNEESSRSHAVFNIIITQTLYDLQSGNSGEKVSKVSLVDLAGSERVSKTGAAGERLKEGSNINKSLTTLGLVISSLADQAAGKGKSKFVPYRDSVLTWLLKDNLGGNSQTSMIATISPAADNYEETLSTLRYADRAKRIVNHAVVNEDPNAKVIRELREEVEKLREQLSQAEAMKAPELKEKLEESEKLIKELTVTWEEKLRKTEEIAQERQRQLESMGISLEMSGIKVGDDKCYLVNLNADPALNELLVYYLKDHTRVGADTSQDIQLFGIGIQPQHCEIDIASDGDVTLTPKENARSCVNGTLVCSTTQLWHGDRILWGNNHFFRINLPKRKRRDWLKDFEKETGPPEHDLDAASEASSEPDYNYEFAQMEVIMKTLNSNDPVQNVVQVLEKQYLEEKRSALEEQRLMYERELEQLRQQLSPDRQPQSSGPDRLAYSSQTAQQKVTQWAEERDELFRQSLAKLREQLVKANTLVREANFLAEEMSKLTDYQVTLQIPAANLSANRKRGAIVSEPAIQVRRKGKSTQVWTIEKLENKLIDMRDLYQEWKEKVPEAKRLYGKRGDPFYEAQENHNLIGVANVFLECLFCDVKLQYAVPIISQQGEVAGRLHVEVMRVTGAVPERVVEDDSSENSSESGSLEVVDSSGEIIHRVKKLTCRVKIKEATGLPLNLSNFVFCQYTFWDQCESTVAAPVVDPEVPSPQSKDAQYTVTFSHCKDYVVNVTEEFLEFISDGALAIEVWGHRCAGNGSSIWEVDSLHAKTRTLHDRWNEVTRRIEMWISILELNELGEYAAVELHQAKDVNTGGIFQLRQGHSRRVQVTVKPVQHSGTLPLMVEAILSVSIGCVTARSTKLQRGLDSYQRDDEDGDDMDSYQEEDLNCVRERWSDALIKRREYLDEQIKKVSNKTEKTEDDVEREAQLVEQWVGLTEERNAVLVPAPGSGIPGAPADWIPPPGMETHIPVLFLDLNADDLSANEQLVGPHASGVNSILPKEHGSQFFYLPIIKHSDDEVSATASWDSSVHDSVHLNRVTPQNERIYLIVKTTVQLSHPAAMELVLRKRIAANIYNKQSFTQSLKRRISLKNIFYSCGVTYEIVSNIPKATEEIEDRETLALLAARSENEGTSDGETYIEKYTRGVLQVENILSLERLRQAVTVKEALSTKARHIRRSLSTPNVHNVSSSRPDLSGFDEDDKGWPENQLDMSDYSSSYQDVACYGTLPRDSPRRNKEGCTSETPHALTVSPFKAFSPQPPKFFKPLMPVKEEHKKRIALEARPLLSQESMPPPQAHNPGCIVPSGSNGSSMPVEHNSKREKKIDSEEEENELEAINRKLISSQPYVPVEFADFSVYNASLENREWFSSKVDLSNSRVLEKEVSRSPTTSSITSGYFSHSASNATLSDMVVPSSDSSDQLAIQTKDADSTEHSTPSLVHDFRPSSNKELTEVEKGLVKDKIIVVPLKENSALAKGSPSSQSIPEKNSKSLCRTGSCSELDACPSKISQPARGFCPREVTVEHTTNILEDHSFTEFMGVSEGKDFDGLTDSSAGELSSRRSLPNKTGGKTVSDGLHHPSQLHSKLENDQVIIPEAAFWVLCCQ
T3 sequence (Q9H1H9 whole entry): as above
T2 sequence (Q9H1H9 whole entry): as above

decrease of the AP-1/KIF13A interaction [1]	decrease of the interaction of AP-1 with KIF13A [2]	decrease of the colocalization of KIF13A with AP-1 [3]	Substance	early melanosome Stages (I and II) [4]	number of Stage III melanosomes [4]	number of Stage IV (fully mature pigmented) melanosomes [4]	decrease of melanin production / pigmentation of reconstructed epidermis [5]	decrease of the intracellular melanin content [6]
57.5±8%	about 52.6±7%		EPLNNLQVAVK (listed as Homo sapiens) [EK-11]					
56.1±6%		about 84±7%	QVAVK (listed as Homo sapiens) [QK-5]	without affecting the early Stages (I and II)	increased their number of Stage III; also recorded: increased the number of less mature and pigmented stages III	decreased their number of Stage IV melanosomes; also recorded: fewer dark-pigmented granules; also recorded: decreased the number of stage IV melanosomes		
			AVK [AK-3]				21±10%	22±8% and ~21.3±8%
